In US5334716A, “Heterocyclic derivatives” (Fujisawa Pharmaceutical Co., Ltd., priority 1991, dated 1994):

Target: prostatic testosterone 5α-reductase
Experiment: Inhibitory activity on testosterone 5α-reductase in rats
Type: biochemical, rat (Spraque-Dawley)
Conditions: rat ventral prostate 5α-reductase suspension, 3H-testosterone 2.2×10^-9 M, 50 μM NADPH, pH 6.5, 37° C., 30 minutes
Excerpt: [2] Inhibitory activity on testosterone 5α-reductase in rats
1,2,6,7-^3 H-Testosterone (85-105 Ci/mmol) is a mixture of 1,2,6,7-^3 H-testosterone and testosterone which includes 85-105 Ci of 1,2,6,7-^3 H-testosterone per mmol of testosterone and is purchased from New England Nuclear, Boston, Mass., U.S.A.
Aquazol-2 (Aquazol-2 Universal LSC Cocktail): trademark, purchased from New England Nuclear, Boston, Mass., U.S.A. ii) Preparation of prostatic testosterone 5α-reductase
Mature Spraque-Dawley male rats (7-8 weeks old) were sacrificed by diethyl ether. The ventral prostates were dissected to be free of their capsules and their combined volume was measured by displacement in several milliliters of ice-cold medium A (0.32M sucrose, 0.1 mM dithiothreitol and 20 mM sodium phosphate, pH 6.5). Unless specified, all the following procedures were carried out at 0°-4° C. The prostates were drained, minced, and then homogenized in 3-4 tissue volumes of medium A with Pyrex-glass homogenizer. The homogenate was fractioned by differential centrifugations at […]. The resulting pellets were resuspended in medium A. The suspension (20-30 mg protein/ml) was stored at -80° C. […]
iii) Testosterone 5α-reductase assay
The reaction solution contains 1 mM dithiothreitol, 40 mM sodium phosphate pH 6.5, 50 μM NADPH, 1,2,6,7-^3 H-testosterone/testosterone (2.2×10^-9 M) and the suspension prepared above (0.8 mg of protein) in a total volume of 565 μl. Test Compound was added in 10 μl of 10% ethanol whereas control tubes received the same volume of 10% ethanol. The reaction was started with the addition of the enzyme suspension. After incubation at 37° C. for 30 minutes, the reaction was extracted with 1 ml of ethyl acetate. Fifty μl of ethyl acetate phase was chromatographed on a Merck silica plastic sheet Kieselgel 60 F254, using ethyl acetate: cyclohexane (1:1) as the developing solvent system. The plastic sheet was air dried and cut the testosterone and the 5α-dihydrotestosterone areas. The radioactivity was counted in 5 ml of Aquazol-2 in Packard scintillation counter (PACKARD TRI - CARB 4530), and an inhibitory ratio was calculated.

First: CC(C)Cc1ccc(C(Nc2ccc(C(=O)c3cc(CCCC(=O)O)n4ccccc34)cc2)c2ccc(CC(C)C)cc2)cc1 [(2), 4-[1-[4-[Bis(4-isobutylphenyl)methylamino]benzoyl]indolizin-3-yl]butyric a cid]
Second: CC(C)Cc1ccc(C(Nc2cccc(C(=O)c3cc(CCCC(=O)O)c4ccccn34)c2)c2ccc(CC(C)C)cc2)cc1 [Compound (1), 4-[3-[3-[Bis(4-isobutylphenyl)methylamino]benzoyl]indolizin-1-yl]butyric a cid]
The IC50 of the first is 5.2-fold lower: 0.44 nM for the first, 2.3 nM for the second. The first is the more potent here.

First: CC(C)Cc1ccc(C(Oc2cccc(C(=O)c3cc(CCCC(=O)O)c4ccccn34)c2)c2ccc(CC(C)C)cc2)cc1 [(3), 4-[3-[3-[Bis(4-isobutylphenyl)methoxy]benzoyl]indolizin-1-yl]butyric acid]
Second: CCC(Oc1ccc(C(=O)c2cc(CCCC(=O)O)n3ccccc23)cc1)c1ccc(CC(C)C)cc1 (centres unmarked) [(4), 4-[1-[4-[1-(4-Isobutylphenyl)propyloxy]benzoyl]indolizin-3-yl]butyric acid]
The IC50 of the first is 12-fold higher: 6.7 nM for the first, 0.55 nM for the second.

With `CCCCC(Oc1ccc(C(=O)c2cc(CCCC(=O)O)n3ccccc23)cc1)c1ccc(CC(C)C)cc1` (centres unmarked) [(5), 4-[1-[4-[1-(4-Isobutylphenyl)pentyloxy]benzoyl]indolizin-3-yl]butyricacid] the IC50 was 1.8 nM.
